According to PubChem BioAssay (NCI):
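Five concentrations, 48 hours, 96-well plates. The concentration for 50% growth inhibition is given as GI50. TGI: total growth inhibition.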 Where a SMILES comes first, the peptide text is derived from it. The star is where a group is joined. Fmoc = O=C(OCC1c2ccccc2-c2ccccc21)*; Boc = CC(C)(C)OC(=O)*

Columns and labels:
Experiment in all cases: DTP human tumour cell line panel, 48 h
IGROV1 ovarian = system: IGROV1 ovarian
BT-549 breast = system: BT-549 breast
LOX IMVI melanoma = system: LOX IMVI melanoma
ACHN renal = system: ACHN renal
SNB-19 CNS = system: SNB-19 CNS
K-562 leukemia = system: K-562 leukemia
OVCAR-8 ovarian = system: OVCAR-8 ovarian
SF-268 CNS = system: SF-268 CNS
COLO 205 colon = system: COLO 205 colon
MDA-MB-435 = system: MDA-MB-435

Row | Compound | GI50 (IGROV1 ovarian) | TGI (IGROV1 ovarian) | GI50 (BT-549 breast) | TGI (BT-549 breast) | GI50 (LOX IMVI melanoma) | TGI (LOX IMVI melanoma) | GI50 (ACHN renal) | TGI (ACHN renal) | GI50 (SNB-19 CNS) | TGI (SNB-19 CNS) | GI50 (K-562 leukemia) | TGI (K-562 leukemia) | GI50 (OVCAR-8 ovarian) | TGI (OVCAR-8 ovarian) | GI50 (SF-268 CNS) | TGI (SF-268 CNS) | GI50 (COLO 205 colon) | TGI (COLO 205 colon) | GI50 (MDA-MB-435) | TGI (MDA-MB-435)
1 | O=C1/C(=C/c2ccc(Cl)cc2)N=C(c2ccccc2)N1CCc1cccs1 | 36.7 µM | > 100 µM | 22.1 µM | > 100 µM | 8.52 µM | > 100 µM | 28.8 µM | > 100 µM | 29.4 µM | > 100 µM | 22.9 µM | > 100 µM | 43.8 µM | > 100 µM | 31.7 µM | > 100 µM | 16 µM | 39.9 µM | 28 µM | > 100 µM
2 | CC1(CCCO)CCCCCCCCCC(C)(CCCO)C1=O (stereo not given) | – | > 100 µM | – | > 100 µM | – | > 100 µM | – | > 100 µM | – | > 100 µM | – | > 100 µM | – | > 100 µM | – | > 100 µM | – | > 100 µM | – | > 100 µM
3 | CCOc1ccc(/C=N/[N+](C)(C)C)cc1OCC | – | > 10 µM | – | > 10 µM | – | > 10 µM | – | > 10 µM | – | > 10 µM | – | > 10 µM | – | > 10 µM | – | > 10 µM | – | > 10 µM | – | > 10 µM
4 | CC(C)(C)c1cc(C2=NN(c3ccccc3)C(c3ccccc3)C2)cc(C(C)(C)C)c1O (stereo not given) | – | > 100 µM | – | > 100 µM | – | > 100 µM | – | > 100 µM | – | > 100 µM | – | > 100 µM | – | > 100 µM | – | > 100 µM | – | > 100 µM | – | > 100 µM
5 | NC1CC2NC3CCCCC3NC2CC1N (stereo not given) | – | > 100 µM | – | > 100 µM | – | > 100 µM | – | > 100 µM | – | > 100 µM | – | > 100 µM | – | > 100 µM | – | > 100 µM | – | > 100 µM | – | > 100 µM
6 | O=C(/C=C/c1cc(O)c(O)cc1O)OCCc1ccccc1 | – | 40.5 µM | – | 62.1 µM | – | 32 µM | – | 26.8 µM | – | > 100 µM | – | 6.89 µM | – | 22.9 µM | – | 38.6 µM | – | 25.7 µM | – | 48.9 µM
7 | CCCCN1C(=O)c2c(-c3sccc3N)sc(-c3sccc3N)c2C1=O | – | > 100 µM | – | > 88.9 µM | – | > 100 µM | – | > 100 µM | – | 44.2 µM | – | > 100 µM | – | > 72.1 µM | – | > 74.3 µM | – | > 46.7 µM | – | > 100 µM
8 | CC(=O)N(O)[C@@H]1CC[C@H](n2cnc3c(N)ncnc32)C1 | – | > 100 µM | – | > 100 µM | – | > 100 µM | – | > 100 µM | – | > 100 µM | – | > 100 µM | – | > 100 µM | – | > 100 µM | – | > 100 µM | – | > 100 µM
9 | C#CC1(O)C(COP(=O)(O)OCC2OC(n3ccc(NCCCCCCCCCCCCCCCCCC)nc3=O)C(O)C2O)OC(n2ccc(N)nc2=O)C1O (stereo not given) | – | 6.02 µM | – | 29.8 µM | – | 11.1 µM | – | > 53.3 µM | – | 40.6 µM | – | 19.9 µM | – | 35.3 µM | – | 38.1 µM | – | > 32.9 µM | – | 7.57 µM
10 | CSCCCNC(=O)c1csc(-c2csc(C(CNC(=O)OC(C)(C)C)CNC(=O)OC(C)(C)C)n2)n1 | – | > 100 µM | – | > 100 µM | – | > 100 µM | – | > 100 µM | – | > 100 µM | – | > 100 µM | – | > 100 µM | – | > 100 µM | – | > 100 µM | – | > 100 µM
11 | CC(C)(C)OC(=O)NCCCCC(NC(=O)OCC1c2ccccc2-c2ccccc21)C(=O)N1CCCC1C(=O)NCC(N)=O (stereo not drawn) (Fmoc-Lys(Boc)-Pro-Gly-NH2; configuration not given here) | – | > 100 µM | – | > 100 µM | – | 40 µM | – | 34.6 µM | – | > 100 µM | – | > 100 µM | – | > 100 µM | – | > 100 µM | – | 99.2 µM | – | 84.8 µM
12 | COC(=O)c1ccc(C)cc1/C=C1\Cc2ccc(C)cc2C1=O | – | 45.8 µM | – | 30 µM | – | 25.6 µM | – | > 100 µM | – | 68.7 µM | – | 42.8 µM | – | 59 µM | – | 48.4 µM | – | 25.1 µM | – | 20.2 µM
13 | COC(=O)C1CCC(=O)N1C(c1ccc(OC)cc1)c1ccc(OC)cc1 (stereo not given) | – | > 100 µM | – | > 100 µM | – | > 100 µM | – | > 100 µM | – | > 100 µM | – | > 100 µM | – | > 100 µM | – | > 100 µM | – | > 100 µM | – | > 100 µM
14 | O=c1[nH]c(Nc2cc(Cl)cc(Cl)c2)nc2nc[nH]c12 | – | > 75 µM | – | > 75 µM | – | > 75 µM | – | > 75 µM | – | > 75 µM | – | > 75 µM | – | > 75 µM | – | > 75 µM | – | > 75 µM | – | > 75 µM
15 | CCCCCCOP(=O)(OCCCCCC)C(NC(=O)OCC)(C(F)(F)F)C(F)(F)F | – | > 100 µM | – | 50.1 µM | – | 56.1 µM | – | > 100 µM | – | > 100 µM | – | > 100 µM | – | > 100 µM | – | > 100 µM | – | 32.3 µM | – | > 100 µM
16 | O=C1CCCC/C1=C\c1ccc(Br)cc1 | – | 38.3 µM | – | 28.7 µM | – | > 100 µM | – | 9.18 µM | – | 13.2 µM | – | 31.7 µM | – | > 100 µM | – | 36.3 µM | – | 32.8 µM | – | 30.6 µM
17 | NCCCNC1(c2cc3ccccc3s2)CCCCC1 | – | 24.3 µM | – | 27.8 µM | – | 6.86 µM | – | 24.4 µM | – | 22.5 µM | – | 5.38 µM | – | 24.4 µM | – | 24.7 µM | – | 3.45 µM | – | 4.48 µM
